Reference: patent US7022699B2, “Cyclohexenyl phenyl diazepines vasopressin and oxytocin receptor modulators” (Wyeth, priority 2001, dated 2006)

These compounds were tested against T1, human vasopressin V2 receptor subtype (Homo sapiens, UniProt P30518) (assay: Vasopressin binding in CHO cell membranes expressing human vasopressin V2 subtype receptors ([3H]arginine vasopressin)). Details: 100 nM, values without parentheses.
T1 construct: host or cells: CHO cells, stably transfected (pZeoSV vector); membranes
Excerpt: Vasopressin Binding in Chinese Hamster Ovary Cell Membranes Expressing Human Vasopressin V2 Subtype Receptors
Chinese Hamster Ovary (CHO) cells stably transfected with the human V2 subtype receptors were obtained from M. Thibonnier, Case Western Reserve University School of Medicine, Cleveland, Ohio.
A. Passaging and Amplification of Cells:
CHO cells transfected with the human vasopressin V2 subtype receptors obtained from M. Thibonnier (pZeoSV vector) are allowed to grow to confluency (approx. >90%) in T-150 flasks under sterile conditions, in a cell culture medium of F-12 Nutrient Mixture (HAM) with L-glutamine (Gibco Cat. #11765-054) containing 15 mM HEPES (Gibco Cat. #15630-080), 1% antibiotic/antimycotic (add 5 mL 100×, Gibco Cat. #15240-062 per 500 mL F-12), 250 μg/mL Zeocin (add 1.25 mL of 100 mg/mL Invitrogen R-250-01 per 500 mL F-12) and 10% Fetal Bovine Serum (Qualified, heat inactivated, Gibco Cat. #16140-063). The medium is removed by aspiration and the cells washed with 10 mL of Hank's Balanced Salt solution (Gibco Cat. #14175-095). The salt solution is removed by aspiration and the cells trypsinized with 5 mL of trypsin-EDTA (0.05% trypsin, 0.53 mM EDTA-4Na, Gibco Cat. #25300-070) for 1 min. The trypsin is removed by aspiration and the cells dislodged by tapping. Cell Culture medium (e.g. 30 mL for 1:30 split) is immediately added and mixed well to inactivate trypsin. 1 mL of detached cells is added to new culture flasks containing fresh Cell Culture medium (e.g. into 25 mL per T-150 flask), and mixed gently. The cells are incubated at 37° C. in 5% CO2. The medium is changed at 3 to 4 day interval (or as appropriate). The cells grow to confluency (approx. >75%–95%) within 7–8 days. All steps are done under sterile conditions. B. Membrane Preparation: The cells are washed twice gently with Hank's Balanced Salt solution (e.g. use 10 mL per T-150 flask). The excess solution is removed and the cells bathed for 15–30 min. in an enzyme-free Cell Dissociation Buffer (e.g. use 8 mL Hank's Based, Gibco Cat. # 13150-016 per T-150 flask) until cells are loosened. The contents are transferred to centrifuge tubes (50 mL size) kept in ice bath. All subsequent steps are done at 4° C. The tubes are centrifuged at 300×g for 15 min (1380 rpm on SORVAL, Model RT6000D, using rotor for 50 mL tubes). The supernatant is discarded and the cells suspended in homogeneizing buffer (10 mM Tris-HCl containing 0.25 M sucrose and 1 mM EDTA, pH 7.4) ensuring that the volume of the buffer is about ten times the volume of the cell pellet. The cells are pooled into a centrifuge tube (50 mL) and homogenized with Polytron at setting 6 for 10 sec. The homogenate is transferred into a Potter-Elvjehm homogeneizer and homogenized with 3 strokes. The homogenate is centrifuged at 1500×g for 60 min at 4° C. (3100 rpm using SORVAL, model RT6000D, using rotor for 50 mL tubes). The pellet is discarded. The supernatant is centrifuged at 100,000×g for 60 min. at 4° C. (Beckman L8-80M ultracentrifuge; spin at 37,500 rpm with rotor type 70 Ti for 50 mL tubes; 38,000 rpm with type 80Ti for 15 mL tubes; or 35,800 rpm with rotor type 45Ti). The supernantant is discarded and the pellet suspended in 3 to 4 mL of Tris buffer (50 mM TRIS-HCl, pH 7.4). The protein content is estimated by the Bradford or Lowry method. The volume of the membrane suspension is adjusted with the membrane buffer (50 mM Tris-HCl containing 0.1% BSA and 0.1 mM PMSF) to give 3.0 mg/mL (or as appropriate) of protein. The membranes are aliquoted and stored at −70° C. C. Radioligand Binding Assay:
In wells of a 96-well format microtiter plate, is added 90, 110 or 130 μL (to make up a final volume of 200 μL) of assay buffer containing 50 mM of Tris-HCl (pH 7.4), […], 1 mg % aprotinin, 1 mg % leupeptin, 2 mg % 1,10-phenanthroline, 10 mg % trypsin inhibitor, and 0.1 mM PMSF. The inhibitors are added on the day of the experiment. […]

T1 sequence (P30518 whole entry): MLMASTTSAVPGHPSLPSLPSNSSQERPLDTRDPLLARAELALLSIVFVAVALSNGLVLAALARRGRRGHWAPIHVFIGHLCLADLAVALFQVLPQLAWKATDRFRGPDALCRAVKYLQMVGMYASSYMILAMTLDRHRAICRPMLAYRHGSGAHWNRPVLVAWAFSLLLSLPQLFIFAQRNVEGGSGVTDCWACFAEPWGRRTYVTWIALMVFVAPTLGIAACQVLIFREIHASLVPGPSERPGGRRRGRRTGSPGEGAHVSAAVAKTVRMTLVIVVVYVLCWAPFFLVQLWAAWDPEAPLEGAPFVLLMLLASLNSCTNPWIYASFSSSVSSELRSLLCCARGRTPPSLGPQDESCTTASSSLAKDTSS

| Compound | inhibition at 0.1 µM [%] | V2 % inhibition @ 100 nM [%] |
| --- | --- | --- |
| COc1cc(C2=CCCc3ccccc32)c(Cl)cc1C(=O)N1Cc2cccn2Cc2ccccc21 [Example 8, 10-[5-Chloro-4-(3,4-dihydro-naphthalen-1-yl)-2-methoxybenzoyl]-10,11-dihydro-5H-pyrrolo[2,1-c][1,4]benzodiazepine] | 77 |  |
| COc1cc(C2=C(C)C(=O)CCC2)c(Cl)cc1C(=O)N1Cc2cccn2Cc2ccccc21 [Example 9, 3-[2-Chloro-5-methoxy-4-(5H-pyrrolo[2,1-c][1,4]benzodiazepin-10(11H)-yl-carbonyl)phenyl]-2-methyl-cyclohex-2-en-1-one] | 69 |  |
| O=C(c1ccc(C2=CCCCC2)cc1Cl)N1Cc2cccn2Cc2ccccc21 [Example 10, (10,11-dihydro-5H-pyrrolo[2,1-c][1,4]benzodiazepin-10-yl)-[2-chloro-4-(cyclohex-1-en1-yl)-phenyl]-methanone] | 65 |  |
| O=C(c1ccc(C2=CCCc3ccccc32)cc1Cl)N1Cc2cccn2Cc2ccccc21 [Example 11, (10,11-Dihydro-5H-pyrrolo[2,1-c][1,4]benzodiazepin-10-yl)-[2-chloro-4-(3,4-dihydro-naphthalen-1-yl)-phenyl]-methanone] | 90 |  |
| CC1(C)CCCC=C1c1ccc(C(=O)N2Cc3cccn3Cc3ccccc32)c(Cl)c1 [Example 12, (10,11-Dihydro-5H-pyrrolo[2,1-c][1,4]benzodiazepin-10-yl)-[2-chloro-4-(6,6-dimethyl-cyclohex-1-en-1-yl)-phenyl]-methanone] | 82 |  |
| CC1(C)CCCC=C1c1ccc(C(=O)N2Cc3cccn3Cc3ccccc32)cc1 [Example 17, (10,11-Dihydro-5H-pyrrolo[2,1-c][1,4]benzodiazepin-10-yl)-[4-(6,6-dimethyl-cyclohex-1-en-1-yl)-phenyl]-methanone] | 43 |  |
| O=C(c1ccc(C2=CCCc3ccccc32)cc1)N1Cc2cccn2Cc2ccccc21 [Example 18, (10,11-Dihydro-5H-pyrrolo[2,1-c][1,4]benzodiazepin-10-yl)-[4-(3,4-dihydro-naphthalen-1-yl)-phenyl]-methanone] | 61 |  |
| CC(C)(C)C1CCCC=C1c1ccc(C(=O)N2Cc3cccn3Cc3ccccc32)cc1 (stereo not shown) [Example 20, (10,11-5H-Dihydro-pyrrolo[2,1-c][1,4]benzodiazepin-10-yl)-[4-(6-tert-butyl-cyclohex-1-en-1-yl)-phenyl]-methanone] |  | 10 |
| O=C(c1ccc(C2=CCC3CCC2C3)cc1)N1Cc2cccn2Cc2ccccc21 (stereo not shown) [Example 21] |  | 5 |
| CC1(C)C2CC=C(c3ccc(C(=O)N4Cc5cccn5Cc5ccccc54)cc3)C1C2 (stereo not shown) [Example 22, (10,11-Dihydro-5H-pyrrolo[2,1-c][1,4]benzodiazepin-10-yl)-[4-(6,6-dimethyl-bicyclo[3.1.1]hept-2-en-2-yl)-phenyl]-methanone] | 17 |  |
| CC1(C)C=C(c2ccc(C(=O)N3Cc4cccn4Cc4ccccc43)cc2)CC(C)(C)C1 [Example 23, (10,11-Dihydro-5H-pyrrolo[2,1-c][1,4]benzodiazepin-10-yl)-[4-(3,3,5,5-tetramethyl-cyclohex-1-en-1-yl)-phenyl]-methanone] | 18 |  |

The remaining lines, values ahead:

| inhibition at 0.1 µM [%] | V2 % inhibition @ 100 nM [%] | Compound |
| --- | --- | --- |
| 2 |  | CC1=C(c2ccc(C(=O)N3Cc4cccn4Cc4ccccc43)cc2C)CCCC1O (racemic) [Example 5, (10,11-Dihydro-5H-pyrrolo[2,1-c][1,4]benzodiazepin-10-yl)-[4-(3-hydroxy-2-methyl-cyclohex-1-en-1-yl)-3-methyl-phenyl]-methanone] |
| 40 |  | CC1=C(c2ccc(C(=O)N3Cc4cccn4Cc4ccccc43)cc2C)CCC[C@H]1O (single isomer, unassigned) [Example 41] |
| 45 |  | CC1=C(c2ccc(C(=O)N3Cc4cccn4Cc4ccccc43)cc2C)CCC[C@@H]1O (single isomer, unassigned) [Example 43] |
| 42 |  | Cc1cc(C(=O)N2Cc3cccn3Cc3ccccc32)ccc1C1=CCCCC1 [Example 2, (10,11-Dihydro-5H-pyrrolo[2,1-c][1,4]benzodiazepin-10-yl)-(4-cyclohex-1-en-1-yl-3-methyl-phenyl)-methanone] |
| 74 |  | CC1=C(c2ccc(C(=O)N3Cc4cccn4Cc4ccccc43)cc2C)CCCC1=O [Example 4, 3-[2-Methyl-4-(5H-pyrrolo[2,1-c][1,4]benzodiazepin-10(11H)-yl-carbonyl)phenyl]-2-methyl-cyclohex-2-en-1-one] |
| 49 |  | CC1=C(c2ccc(C(=O)N3Cc4cccn4Cc4ccccc43)cc2C)CCC[C@H]1O [Example 6, (10,11-Dihydro-5H-pyrrolo[2,1-c][1,4]benzodiazepin-10-yl)-[4-((3R)-3-hydroxy-2-methyl-cyclohex-1-en-1-yl)-3-methyl-phenyl]-methanone] |
| 55 |  | CC1=C(c2ccc(C(=O)N3Cc4cccn4Cc4ccccc43)c(Cl)c2)CCCC1=O [Example 13, (10,11-Dihydro-5H-pyrrolo[2,1-c][1,4]benzodiazepin-10-yl)-[2-chloro-4-(2-methyl-3-oxo-cyclohex-1-en-1-yl)-phenyl]-methanone] |
| 38 |  | CC1=C(c2ccc(C(=O)N3Cc4cccn4Cc4ccccc43)c(Cl)c2)CCCC1O (stereo not shown) [Example 14, (10,11-Dihydro-5H-pyrrolo[2,1-c][1,4]benzodiazepin-10-yl)-[2-chloro-4-(3-hydroxy-2-methyl-cyclohex-1-en-1-yl)-phenyl]-methanone] |
| 5 |  | CC1=C(c2ccc(C(=O)N3Cc4cccn4Cc4ccccc43)cc2)C(C)CCC1 (stereo not shown) [Example 19, (10,11-Dihydro-5H-pyrrolo[2,1-c][1,4]benzodiazepin-10-yl)-[4-(2,6-dimethyl-cyclohex-1-en-1-yl)-phenyl]-methanone] |

Same assay, conditions: values in parentheses

| Compound | IC50 [nM] |
| --- | --- |
| COc1cc(C2=CCCCC2)c(Cl)cc1C(=O)N1Cc2cccn2Cc2ccccc21 [Example 1, 10-(5-Chloro-4-cyclohex-1-en-1-yl-2-methoxybenzoyl)-10,11-dihydro-5H-pyrrolo[2,1-c][1,4]benzodiazepine] | 176 |
| Cc1cc(C(=O)N2Cc3cccn3Cc3ccccc32)ccc1C1=CCCc2ccccc21 [Example 3, (10,11-Dihydro-5H-pyrrolo[2,1-c][1,4]benzodiazepin-10-yl)-[4-(3,4-dihydro-naphthalen-1-yl)-3-methyl-phenyl]-methanone] | 66 |
| CC1=C(c2ccc(C(=O)N3Cc4cccn4Cc4ccccc43)cc2)CCCC1 [Example 7, (10,11-Dihydro-5H-pyrrolo[2,1-c][1,4]benzodiazepin-10-yl)-[4-(2-methyl-cyclohex-1-en-1-yl)-phenyl]-methanone] | 162 |
| O=C(c1ccc(C2=CCCCC2)cc1)N1Cc2cccn2Cc2ccccc21 [Example 15, (10,11-Dihydro-5H-pyrrolo[2,1-c][1,4]benzodiazepin-10-yl)-(4-cyclohex-1-en-1-yl-phenyl)-methanone] | 774 |
| CC1CCCC=C1c1ccc(C(=O)N2Cc3cccn3Cc3ccccc32)cc1 (stereo not shown) [Example 16, (10,11-Dihydro-5H-pyrrolo[2,1-c][1,4]benzodiazepin-10-yl)-[4-(6-methyl-cyclohex-1-en-1-yl)-phenyl]-methanone] | 295 |
